Data reported in patent US20260327243A1, “SPIRO-HETEROCYCLIC INHIBITORS OF KRAS G12C MUTANT PROTEINS AND USES THEREOF” (AMGEN INC., priority 2023, published 2026).

Target: KRAS^G12C (Homo sapiens, UniProt P01116, C118A/G12C)
Experiment: Coupled Nucleotide Exchange Assay
Assay type: biochemical
Settings: GDP-bound KRAS (aa 1-169) G12C/C118A; 2 h compound pre-incubation; SOS-mediated exchange, 30 min; cRAF binding (AlphaLISA)
Experimental: The KRAS^G12C coupled nucleotide exchange assay allows for the screening and profiling of KRAS^G12C antagonists/inhibitors by monitoring the binding of an effector protein (e.g., a Ras binding domain of Raf1, RBD-cRaf) to KRAS^G12C. Purified GDP-bound KRAS protein (aa 1-169), containing both G12C and C118A amino acid substitutions and an N-terminal His-tag, was pre-incubated in assay buffer (25 mM HEPES pH 7.4, 10 mM MgCl2, 0.01% Triton X-100, either with or without 0.1% BSA) with serially diluted compound for 2 h. For all subsequent steps, BSA was omitted and DTT was added to the reaction buffer at a final concentration of 1 mM. Following compound pre-incubation, purified SOS protein (aa 564-1049) and GTP (Roche 10106399001) were added to the assay wells and incubated for an additional 30 min. To determine the extent of inhibition of SOS-mediated nucleotide exchange, purified GST-tagged cRAF (aa 1-149), nickel chelate AlphaLISA acceptor beads (PerkinElmer AL108R), and AlphaScreen glutathione donor beads (PerkinElmer 6765302) were added to the assay wells and incubated for 5-30 min. The assay plates were then read on a plate reader measuring luminescence signal. Signal intensity of compound-containing wells were normalized to DMSO control, and data were analyzed using a 4-parameter logistic model to calculate IC50 values.

Sequence of KRAS^G12C (P01116 1-169 isoform P01116-2 G12C/C118A): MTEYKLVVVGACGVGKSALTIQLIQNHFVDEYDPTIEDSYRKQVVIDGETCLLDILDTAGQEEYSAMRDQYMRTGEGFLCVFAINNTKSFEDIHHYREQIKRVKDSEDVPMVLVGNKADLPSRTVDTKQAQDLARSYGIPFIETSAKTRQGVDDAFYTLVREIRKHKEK

Row | SMILES | IC50
1 | C=CC(=O)N1CCN(C2CN(c3cc(N4CCC5(CCCO5)[C@@H](CO)C4)nc(C(F)(F)F)c3C#N)C2)CC1 (stereo partly drawn) [Compound 3-062-2, 4-(3-(4-acryloylpiperazin-1-yl)azetidin-1-yl)-6-((6R)-6-(hydroxymethyl)-1-oxa-8-azaspiro[4.5]decan-8-yl)-2-(trifluoromethyl)nicotinonitrile] | 6.2 µM
2 | C=CC(=O)N1CCN(C2CN(c3cc(N4CCC5(CC4)CN(CC)C(=O)O5)nc(C(F)(F)F)c3C#N)C2)CC1 [Compound 3-033, 4-(3-(4-acryloylpiperazin-1-yl)azetidin-1-yl)-6-(3-ethyl-2-oxo-1-oxa-3,8-diazaspiro[4.5]decan-8-yl)-2-(trifluoromethyl)nicotinonitrile] | 6.19 µM
3 | C=CC(=O)N1CCN(C2CN(c3cc(N4CCC5(CC4)OCCc4ncsc45)nc(C(F)F)c3C)C2)CC1 [Compound 3-069, 1-(4-(1-(2-(Difluoromethyl)-6-(6′,7′-dihydrospiro[piperidine-4,4′-pyrano[4,3-d]thiazol]-1-yl)-3-methylpyridin-4-yl)azetidin-3-yl)piperazin-1-yl) prop-2-en-1-one] | 0.83 µM
4 | C=CC(=O)N1CCN(C2(C)CN(c3cc(N4CCC5(CC4)OCc4ccccc45)nc(C(F)(F)F)n3)C2)CC1 [Compound 3-027, 1-(4-(1-(6-(3H-spiro[isobenzofuran-1.4′-piperidin]-1′-yl)-2-(trifluoromethyl)pyrimidin-4-yl)-3-methylazetidin-3-yl)piperazin-1-yl)prop-2-en-1-one] | 6.15 µM
5 | C=CC(=O)N1CCN(C2CN(c3cc(N4CCC5(CC4)CC(F)(F)C5)nc(C(F)(F)F)c3C#N)C2)CC1 [Compound 3-037, 4-(3-(4-acryloylpiperazin-1-yl)azetidin-1-yl)-6-(2,2-difluoro-7-azaspiro[3.5]nonan-7-yl)-2-(trifluoromethyl)nicotinonitrile] | 3.3 µM
6 | C=CC(=O)N1CCN(C2CN(c3cc(N4CCC5(CC4)O[C@@H](C)C=C5Cl)nc(C(F)(F)F)c3C#N)C2)CC1 (single isomer, unassigned) [Compound 3-067-2] | 0.867 µM
7 | C=CC(=O)N1CCN(C2CN(c3cc(N4CCC5(CC4)COc4ccccc45)nc(C(F)(F)F)n3)C2)CC1 [Compound 3-018, 1-(4-(1-(6-(2H-spiro[benzofuran-3,4′-piperidin]-1′-yl)-2-(trifluoro-methyl)pyrimidin-4-yl)azetidin-3-yl)piperazin-1-yl)prop-2-en-1-one] | 1.98 µM
8 | C=CC(=O)N1CCN(C2CN(c3cc(N4CCC5(C=CCO5)CC4)nc(C(F)F)c3C)C2)CC1 [Compound 3-070, 1-(4-(1-(2-(difluoromethyl)-3-methyl-6-(1-oxa-8-azaspiro[4.5]dec-3-en-8-yl)pyridin-4-yl)azetidin-3-yl)piperazin-1-yl)prop-2-en-1-one] | 1.4 µM
9 | C=CC(=O)N1CCN(C2CN(c3cc(N4CCC5(CC4)CC5(F)F)nc(C(F)(F)F)c3C#N)C2)CC1 [Compound 3-036, 4-(3-(4-acryloylpiperazin-1-yl)azetidin-1-yl)-6-(1,1-difluoro-6-azaspiro[2.5]octan-6-yl)-2-(trifluoromethyl)nicotinonitrile] | 6.7 µM
10 | C=CC(=O)N1CCN(C2CN(c3cc(N4CCC5(CC4)OC(=O)NC54CCC4)nc(C(F)(F)F)c3C#N)C2)CC1 [Compound 3-034, 4-(3-(4-acryloylpiperazin-1-yl)azetidin-1-yl)-6-(12-oxo-11-oxa-8,13-diazadispiro[3.0.55.34]tridecan-8-yl)-2-(trifluoromethyl)nicotinonitrile] | 2.45 µM
11 | C=CC(=O)N1CCN(C2CN(c3cc(N4CCC5(CC4)COC5)nc(C(F)(F)F)c3C#N)C2)CC1 [Compound 3-019, 4-(3-(4-acryloylpiperazin-1-yl)-azetidin-1-yl)-6-(2-oxa-7-azaspiro [3.5]nonan-7-yl)-2-(trifluorometh-yl)nicotinonitrile] | 4.4 µM
12 | C=CC(=O)N1CCN(C2CN(c3cc(N4CCC5(CC4)OCc4cc(Cl)ccc45)nc(C(F)(F)F)c3C#N)C2)CC1 [Compound 3-041, 4-(3-(4-acryloylpiperazin-1-yl)azetidin-1-yl)-6-(5-chloro-3H-spiro[isobenzofuran-1,4′-piperidin]-1′-yl)-2-(trifluoromethyl)nicotinonitrile] | > 6.25 µM
13 | C=CC(=O)N1CCN(C2CN(c3cc(N4CCC5(CC4)CCN(C4COC4)C5)nc(C(F)(F)F)c3C#N)C2)CC1 [Compound 3-048, 4-(3-(4-acryloylpiperazin-1-yl)azetidin-1-yl)-6-(2-(oxetan-3-yl)-2,8-diazaspiro[4.5]decan-8-yl)-2-(trifluoromethyl)nicotinonitrile] | 2.29 µM
14 | C=CC(=O)N1CCN(C2CN(c3cc(N4CCC5(C=CCOC5)CC4)nc(C(F)F)c3C)C2)CC1 [Compound 3-072, 1-(4-(1-(2-(difluoromethyl)-3-methyl-6-(2-oxa-9-azaspiro[5.5]undec-4-en-9-yl)pyridin-4-yl)azetidin-3-yl)piperazin-1-yl)prop-2-en-1-one] | 4.9 µM
15 | C=CC(=O)N1CCN([C@@H]2CN(c3cc(N4CCC5(C[C@@H]4C)OCC=C5C)nc(C(F)F)n3)[C@@H]2C)CC1 (stereo partly drawn) [Compound 3-007, 1-(4-((2R,3R)-1-(2-(difluorometh-yl)-6-(4.7-dimethyl-1-oxa-8-aza-spiro[4.5]dec-3-en-8-yl)pyrimidin-4-yl)-2-methyl-azetidin-3-yl)piper-azin-1-yl)-prop-2-en-1-one] | 6.57 µM
16 | C=CC(=O)N1CCN(C2CN(c3cc(N4CCC5(CC4)OCC4CC45)nc(C(F)(F)F)c3C#N)C2)CC1 (stereo not shown) [Compound 3-042, 4-(3-(4-acryloylpiperazin-1-yl)azetidin-1-yl)-6-(3-oxaspiro[bicyclo[3.1.0]hexane-2,4′-piperidin]-1′-yl)-2-(trifluoromethyl)nicotinonitrile] | 5.12 µM
17 | C=CC(=O)N1CCN(C2CN(c3cc(N4CCC5(CC4)CC(C)(C)CO5)nc(C(F)(F)F)c3C#N)C2)CC1 [Compound 3-045, 4-(3-(4-acryloylpiperazin-1-yl)azetidin-1-yl)-6-(3,3-dimethyl-1-oxa-8-azaspiro[4.5]decan-8-yl)-2-(trifluoromethyl)nicotinonitrile] | 6.35 µM

Further lines, results first:

Row | IC50 | SMILES
18 | 2.69 µM | C=CC(=O)N1CCN(C2CN(c3cc(N4CCC5(CC4)OCc4cnn(C)c45)nc(C(F)(F)F)n3)C2)CC1 [Compound 3-047, 1-(4-(1-(6-(1-methyl-1,4-dihydrospiro[furo[3,4-c]pyrazole-6,4′-piperidin]-1′-yl)-2-(trifluoromethyl)pyrimidin-4-yl)azetidin-3-yl)piperazin-1-yl)prop-2-en-1-one]
19 | 0.66 µM | C=CC(=O)N1CCN([C@@H]2CN(c3cc(N4CCC5(C=CCO5)CC4)nc(C(F)(F)F)c3C#N)[C@@H]2C)CC1 [Compound 3-010, 4-((2R,3R)-3-(4-acryloylpiperazin-1-yl)-2-methylazetidin-1-yl)-6-(1-oxa-8-azaspiro[4.5]dec-3-en-8-yl)-2-(trifluoromethyl)nicotinonitrile]
20 | 5.64 µM | C=CC(=O)N1CCN(C2CN(c3cc(N4CCC5(CC4)c4ccccc4C(=O)N5C)nc(C(F)(F)F)n3)C2)CC1 [Compound 3-013]
21 | 1.95 µM | C=CC(=O)N1CCN([C@@H]2CN(c3cc(N4C5CCC4CC4(CCCO4)C5)nc(C(F)(F)F)n3)[C@@H]2C)CC1 (stereo partly drawn) [Compound 3-026, 1-(4-((2R,3R)-1-(6-(dihydro-3′H-8-azaspiro[bicyclo[3.2.1]octane-3,2′-furan]-8-yl)-2-(trifluoromethyl)pyrimidin-4-yl)-2-methylazetidin-3-yl)piperazin-1-yl)prop-2-en-1-one]
22 | 5.7 µM | C=CC(=O)N1CCN(C2CN(c3cc(N4CCC5(CC4)OCCc4ccsc45)nc(C(F)(F)F)n3)C2)CC1 [Compound 3-064, 1-(4-(1-(6-(4′,5′-dihydrospiro[piperidine-4,7′-thieno[2,3-c]pyran]-1-yl)-2-(trifluoromethyl)pyrimidin-4-yl)azetidin-3-yl)piperazin-1-yl)prop-2-en-1-one]
23 | 2.4 µM | C=CC(=O)N1CCN([C@@H]2CN(c3cc(N4CCC5(CC4)COc4nccc(C)c45)nc(C(F)(F)F)n3)[C@@H]2C)CC1 [Compound 3-092, 1-(4-((2R,3R)-2-methyl-1-(6-(4-methyl-1′H-spiro[furo[2,3-b]pyridine-3,4′-piperidin]-1′-yl)-2-(trifluoromethyl)-4-pyrimidinyl)-3-azetidinyl)-1-piperazinyl)-2-propen-1-one]
24 | 7.27 µM | C=CC(=O)N1CCN([C@@H]2CN(c3cc(N4CCC5(CC4)CC5CN4CCCC4)nc(C(F)(F)F)n3)[C@@H]2C)CC1 (stereo partly drawn) [Compound 3-023, 1-(4-((2R,3R)-2-methyl-1-(6-(1-(pyrrolidin-1-ylmethyl)-6-azaspiro[2.5]octan-6-yl)-2-(trifluoromethyl)pyrimidin-4-yl)azetidin-3-yl)piperazin-1-yl)prop-2-en-1-one]
25 | 1.32 µM | C=CC(=O)N1CCN([C@@H]2CN(c3cc(N4CCC5(CC4)C(C)=CCN5C)nc(C(F)(F)F)n3)[C@@H]2C)CC1 [Compound 3-055, 1-(4-((2R,3R)-1-(6-(1,4-Dimethyl-1,8-diazaspiro[4.5]dec-3-en-8-yl)-2-(trifluoromethyl)pyrimidin-4-yl)-2-methylazetidin-3-yl)piperazin-1-yl)prop-2-en1-one]
